Assay results taken from US8324199B2, “Pyridazine derivatives as factor xia inhibitors” (Bristol-Myers Squibb Company, priority 2008, dated 2012).

What follows are compounds tested against T1, purified human Factor XIa (Homo sapiens, UniProt P03951) (assay: Factor XIa assay (chromogenic substrate hydrolysis, Ki)). Conditions: purified human Factor XIa 75-200 pM, substrate S-2366, 50 mM HEPES pH 7.4.
T1 construct: purchased Haematologic Technologies
T1 sequence (P03951 388-625 limits assumed): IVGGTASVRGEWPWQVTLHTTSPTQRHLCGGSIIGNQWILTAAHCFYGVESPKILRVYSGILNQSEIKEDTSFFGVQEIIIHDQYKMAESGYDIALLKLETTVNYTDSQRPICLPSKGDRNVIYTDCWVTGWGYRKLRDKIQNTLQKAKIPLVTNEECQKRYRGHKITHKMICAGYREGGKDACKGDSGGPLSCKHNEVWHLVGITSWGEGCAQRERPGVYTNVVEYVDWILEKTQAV
T1 sequence (P03951 19-387 partner limits assumed): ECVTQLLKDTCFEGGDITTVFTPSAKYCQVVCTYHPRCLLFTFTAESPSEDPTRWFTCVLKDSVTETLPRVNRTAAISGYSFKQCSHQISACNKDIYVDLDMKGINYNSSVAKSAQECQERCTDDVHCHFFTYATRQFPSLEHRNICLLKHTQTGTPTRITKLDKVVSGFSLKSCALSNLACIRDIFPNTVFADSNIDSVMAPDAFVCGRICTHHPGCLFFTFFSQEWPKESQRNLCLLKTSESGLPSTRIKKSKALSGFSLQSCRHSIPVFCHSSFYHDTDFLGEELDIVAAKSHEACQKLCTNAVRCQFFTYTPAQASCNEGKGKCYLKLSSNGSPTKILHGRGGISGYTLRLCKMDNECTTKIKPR
Assay type: biochemical
Experimental: The effectiveness of compounds of the present invention as inhibitors of the coagulation factors XIa, VIIa, IXa, Xa, XIIa, plasma kallikrein or thrombin, can be determined using a relevant purified serine protease, respectively, and an appropriate synthetic substrate. The rate of hydrolysis of the chromogenic or fluorogenic substrate by the relevant serine protease was measured both in the absence and presence of compounds of the present invention. […] A decrease in the rate of absorbance or fluorescence change in the presence of inhibitor is indicative of enzyme inhibition. Such methods are known to one skilled in the art. The results of this assay are expressed as the inhibitory constant, Ki.
Factor XIa determinations were made in 50 mM HEPES buffer at pH 7.4 containing 145 mM NaCl, 5 mM KCl, and 0.1% PEG 8000 (polyethylene glycol; JT Baker or Fisher Scientific). Determinations were made using purified human Factor XIa at a final concentration of 75-200 pM (Haematologic Technologies) and the synthetic substrate S-2366 (pyroGlu-Pro-Arg-pNA; Chromogenix or AnaSpec) at a concentration of 0.0002-0.001 M.
The Michaelis constant, Km, for substrate hydrolysis by each protease, was determined at 25° C. using the method of Lineweaver and Burk. Values of Ki were determined by allowing the protease to react with the substrate in the presence of the inhibitor. Reactions were allowed to go for periods of 20-180 minutes (depending on the protease) and the velocities (rate of absorbance or fluorescence change versus time) were measured. The following relationships were used to calculate Ki values: (vo−vs)/vs=I/(Ki(1+S/Km)) for a competitive inhibitor with one binding site; or vs/vo=A+((B−A)/1+((IC50/(I)^n))); and Ki=IC50/(1+S/Km) for a competitive inhibitor where: […]
`COC(=O)Nc1ccc(-c2cc(C(Cc3ccccc3)NC(=O)/C=C/c3cc(Cl)ccc3-n3ccnc3)c(Cl)nn2)cc1` (racemic) [Example 8, (±)-(E)-Methyl 4-(6-chloro-5-(1-(3-(5-chloro-2-(1H-imidazol-1-yl)phenyl)acrylamido)-2-phenylethyl)pyridazin-3-yl)phenylcarbamate] showed a Ki of 1160 nM.
`COC(=O)Nc1ccc(-c2cc(C(C)NC(=O)/C=C/c3cc(Cl)ccc3-n3cnnn3)c(Cl)nn2)cc1` (racemic) [Example 11, (±)-(E)-Methyl 4-(6-chloro-5-(1-(3-(5-chloro-2-(1H-tetrazol-1-yl)phenyl)acrylamido)ethyl)pyridazin-3-yl)phenylcarbamate] showed a Ki of 52 nM.
Compound `Nc1ccc(-c2cc(C(Cc3ccccc3)NC(=O)/C=C/c3cc(Cl)ccc3-n3cnnn3)c(Cl)nn2)cn1` (racemic) [Example 36, (±)-(E)-N-(1-(6-(6-Aminopyridin-3-yl)-3-chloropyridazin-4-yl)-2-phenylethyl)-3-(5-chloro-2-(1H-tetrazol-1-yl)phenyl)acrylamide] has a Ki of 20 nM.
Work on `COC(=O)Nc1ccc(-c2cc(C(Cc3ccccc3)NC(=O)/C=C/c3cc(Cl)ccc3-n3cnnn3)c(Cl)nn2)cc1` (single isomer, unassigned) [Example 2, (E)-Methyl 4-(6-chloro-5-(1-(3-(5-chloro-2-(1H-tetrazol-1-yl)phenyl)acrylamido)-2-phenylethyl)pyridazin-3-yl)phenylcarbamate] yielded a Ki of 2 nM.
`COC(=O)Nc1ccc(-c2cc(C(Cc3ccccc3)NC(=O)/C=C/c3cc(Cl)ccc3-n3cnnn3)c(Cl)nn2)cc1` (single isomer, unassigned) [Example 3, (E)-Methyl 4-(6-chloro-5-(1-(3-(5-chloro-2-(1H-tetrazol-1-yl)phenyl)acrylamido)-2-phenylethyl)pyridazin-3-yl)phenylcarbamate] showed a Ki of 630 nM.
`COC(=O)Nc1ccc(-c2cc(C(CC(=O)OC(C)(C)C)NC(=O)/C=C/c3cc(Cl)ccc3-n3cnnn3)c(Cl)nn2)cc1` (single isomer, unassigned) [Example 20, (E)-tert-Butyl 3-(3-(5-chloro-2-(1H-tetrazol-1-yl)phenyl)acrylamido)-3-(3-chloro-6-(4-(methoxycarbonylamino)phenyl)pyridazin-4-yl)propanoate] was tested, and the Ki was 2.9 nM.
In the case of `COC(=O)Nc1ccc(-c2cc(C(CC(=O)N3CCN(C)CC3)NC(=O)/C=C/c3cc(Cl)ccc3-n3cnnn3)c(Cl)nn2)cc1` (single isomer, unassigned) [Example 27, (E)-Methyl 4-(6-chloro-5-(1-(3-(5-chloro-2-(1H-tetrazol-1-yl)phenyl)acrylamido)-3-(4-methylpiperazin-1-yl)-3-oxopropyl)pyridazin-3-yl)phenylcarbamate], the Ki is reported as 4 nM.
`COC(=O)Nc1ccc(-c2cc([C@H](CC3CCCNC3)NC(=O)/C=C/c3cc(Cl)ccc3-n3cnnn3)nnc2Cl)cc1` (single isomer, unassigned) [Example 99] showed a Ki of 746 nM.
`COC(=O)Nc1ccc(-c2cc([C@H](CC3CCCN(C(=O)C(C)C)C3)NC(=O)/C=C/c3cc(Cl)ccc3-n3cnnn3)nnc2Cl)cc1` (single isomer, unassigned) [Example 118] gave a Ki of 55 nM.
`COC(=O)Nc1ccc(-c2cc([C@H](Cc3ccccc3)NC(=O)/C=C/c3cc(Cl)ccc3-n3cnnn3)nn(C)c2=O)cc1` [Example 40, (S,E)-Methyl 4-(6-(1-(3-(5-chloro-2-(1H-tetrazol-1-yl)phenyl)acrylamido)-2-phenylethyl)-2-methyl-3-oxo-2,3-dihydropyridazin-4-yl)phenylcarbamate] gave a Ki of 156 nM.
Compound `CCOC(=O)Nc1ccc(-c2cc([C@H](Cc3ccccc3)NC(=O)/C=C/c3cc(Cl)ccc3-n3cnnn3)nnc2OCC)cc1` [Example 51, (S,E)-Ethyl 4-(6-(1-(3-(5-chloro-2-(1H-tetrazol-1-yl)phenyl)acrylamido)-2-phenylethyl)-3-ethoxypyridazin-4-yl)phenylcarbamate] has a Ki of 405 nM.
Compound `O=C(O)CCOC(=O)Nc1ccc(-c2cnnc([C@H](Cc3ccccc3)NC(=O)CCc3ccccc3-n3cnnn3)c2)cc1` [Example 60, (S)-3-(4-(6-(1-(3-(2-(1H-Tetrazol-1-yl)phenyl)propanamido)-2-phenylethyl)pyridazin-4-yl)phenylcarbamoyloxy)propanoic acid] has a Ki of 3370 nM.
Compound `COC(=O)Nc1ccc(-c2cc([C@H](Cc3ccccc3)NC(=O)/C=C/c3cc(Cl)ccc3-n3cnnn3)n[nH]c2=O)cc1F` [Example 61, (S,E)-Methyl 4-(6-(1-(3-(5-chloro-2-(1H-tetrazol-1-yl)phenyl)acrylamido)-2-phenylethyl)-3-oxo-2,3-dihydropyridazin-4-yl)-2-fluorophenylcarbamate] has a Ki of 1680 nM.
Compound `CCn1ccc(C[C@H](NC(=O)/C=C/c2cc(Cl)ccc2-n2cnnn2)c2cc(-c3ccc(NC(=O)OC)cc3)c(Cl)nn2)n1` [Example 71, (S,E)-Methyl 4-(3-chloro-6-(1-(3-(5-chloro-2-(1H-tetrazol-1-yl)phenyl)acrylamido)-2-(1-ethyl-1H-pyrazol-3-yl)ethyl)pyridazin-4-yl)phenylcarbamate] has a Ki of 9.4 nM.
`O=C(/C=C/c1cc(Cl)ccc1-n1cnnn1)N[C@@H](Cc1ccccc1)c1cc(-c2ccc3[nH]c(=O)cc(O)c3c2)cnn1` [Example 78, (S,E)-3-(5-Chloro-2-(1H-tetrazol-1-yl)phenyl)-N-(1-(5-(4-hydroxy-2-oxo-1,2-dihydroquinolin-6-yl)pyridazin-3-yl)-2-phenylethyl)acrylamide] was tested, and the Ki was 0.84 nM.
`NC1CC1C(=O)Nc1ccc(-c2cnnc([C@H](Cc3ccccc3)NC(=O)/C=C/c3cc(Cl)ccc3-n3cnnn3)c2)cc1` (stereo partly drawn) [Example 80, 2-Amino-N-(4-(6-((S)-1-((E)-3-(5-chloro-2-(1H-tetrazol-1-yl)phenyl)acrylamido)-2-phenylethyl)pyridazin-4-yl)phenyl)cyclopropanecarboxamide] was tested, and the Ki was 3330 nM.
`O=C(/C=C/c1cc(Cl)ccc1-n1cnnn1)N[C@@H](Cc1ccccc1)c1cc(-c2ccc(NC(=O)OC3CNC3)cc2)cnn1` [Example 89, (S,E)-Azetidin-3-yl 4-(6-(1-(3-(5-chloro-2-(1H-tetrazol-1-yl)phenyl)acrylamido)-2-phenylethyl)pyridazin-4-yl)phenylcarbamate] showed a Ki of 141 nM.
In the case of `COC(=O)Nc1ccc(-c2cc([C@H](CCSC)NC(=O)/C=C/c3cc(Cl)ccc3-n3cnnn3)nnc2Cl)cc1` [Example 90, (S,E)-Methyl 4-(3-chloro-6-(1-(3-(5-chloro-2-(1H-tetrazol-1-yl)phenyl)acrylamido)-3-(methylthio)propyl)pyridazin-4-yl)phenylcarbamate], the Ki is reported as 67 nM.
For `COC(=O)Nc1ccc(-c2cc([C@H](Cc3ccncc3)NC(=O)/C=C/c3cc(Cl)ccc3-n3cnnn3)nnc2Cl)cc1` [Example 94, (S,E)-Methyl 4-(3-chloro-6-(1-(3-(5-chloro-2-(1H-tetrazol-1-yl)phenyl)acrylamido)-2-(pyridin-4-yl)ethyl)pyridazin-4-yl)phenylcarbamate], the Ki was 27 nM.
`COC(=O)Nc1ccc(-c2cc([C@H](Cc3cc4n(n3)CCCO4)NC(=O)/C=C/c3cc(Cl)ccc3-n3cnnn3)nnc2Cl)cc1` [Example 97, (S,E)-Methyl 4-(3-chloro-6-(1-(3-(5-chloro-2-(1H-tetrazol-1-yl)phenyl)acrylamido)-2-(6,7-dihydro-5H-pyrazolo[5,1-b][1,3]oxazin-2-yl)ethyl)pyridazin-4-yl)phenylcarbamate] showed a Ki of 17 nM.
For `COC(=O)Nc1ccc(-c2cc([C@H](CC3CCCN(C(=O)C4CC4)C3)NC(=O)/C=C/c3cc(Cl)ccc3-n3cnnn3)nnc2Cl)cc1` (stereo partly drawn) [Example 112, Methyl 4-(3-chloro-6-((1S)-1-((E)-3-(5-chloro-2-(1 H-tetrazol-1-yl)phenyl)acrylamido)-2-(1-(cyclopropanecarbonyl)piperidin-3-yl)ethyl)pyridazin-4-yl)phenylcarbamate], the Ki was 6360 nM.
`CCN1CCC(C[C@H](NC(=O)/C=C/c2cc(Cl)ccc2-n2cnnn2)c2cc(-c3ccc(NC(=O)OC)cc3)c(Cl)nn2)C1` (stereo partly drawn) [Example 116, Methyl 4-(3-chloro-6-((1S)-1-((E)-3-(5-chloro-2-(1 H-tetrazol-1-yl)phenyl)acrylamido)-2-(1-ethylpyrrolidin-3-yl)ethyl)pyridazin-4-yl)phenylcarbamate] gave a Ki of 327 nM.
With `COC(=O)Nc1ccc(-c2cc([C@H](Cc3cscn3)NC(=O)/C=C/c3cc(Cl)ccc3-n3cnnn3)nnc2Cl)cc1` [Example 123, (S,E)-Methyl 4-(3-chloro-6-(1-(3-(5-chloro-2-(1H-tetrazol-1-yl)phenyl)acrylamido)-2-(thiazol-4-yl)ethyl)pyridazin-4-yl)phenylcarbamate] the Ki was 57 nM.
`COC(=O)Nc1ccc(-c2cc([C@H](Cc3cc([S+](C)[O-])n(C)n3)NC(=O)/C=C/c3cc(Cl)ccc3-n3cnnn3)n[nH]c2=O)cc1` (stereo partly drawn) [Example 132, (S,E)-Methyl 4-(6-(1-(3-(5-chloro-2-(1H-tetrazol-1-yl)phenyl)acrylamido)-2-(1-methyl-5-(methylsulfinyl)-1H-pyrazol-3-yl)ethyl)-3-oxo-2,3-dihydropyridazin-4-yl)phenylcarbamate] gave a Ki of 76 nM.
